Source: the NIST ThermoML archive (doi:10.1016/j.fluid.2018.05.032)
Values joined by “and” are separate entries in the source; they are usually repeats but may differ in a detail not shown here. Equal entries are not always repeated.

What was measured:
[1] = for vapor or sublimation pressure: Closed cell (Static) method; for Normal melting temperature: DTA
[2] = Molar enthalpy of transition or fusion; conditions: Crystal; DSC
[3] = molar heat capacity at constant pressure; conditions: 101.33 kPa, DSC

CCNCCO [2-(ethylamino)ethanol]
Conditions | molar heat capacity at constant pressure [J/K/mol] | vapor or sublimation pressure
[1], 238.05 K, Crystal | – | 5e-05 kPa and 4.9e-05 kPa and 4.8e-05 kPa
[1], 243.07 K, Crystal | – | 0.000113 kPa and 0.000112 kPa
[1], 243.07 K, Metastable liquid | – | 0.000222 kPa and 0.000223 kPa and 0.000221 kPa
[1], 248.11 K, Metastable liquid | – | 0.000424 kPa and 0.000423 kPa
[1], 248.13 K, Crystal | – | 0.000251 kPa and 0.000252 kPa
[1], 248.14 K, Crystal | – | 0.000253 kPa
[1], 253.13 K, Crystal | – | 0.000545 kPa and 0.000544 kPa and 0.000546 kPa
[1], 253.13 K, Metastable liquid | – | 0.000783 kPa and 0.000784 kPa and 0.000781 kPa
[1], 258.13 K, Crystal | – | 0.001146 kPa
[1], 258.13 K, Metastable liquid | – | 0.001403 kPa and 0.001401 kPa
[1], 258.14 K, Crystal | – | 0.001142 kPa and 0.001139 kPa
[1], 258.14 K, Metastable liquid | – | 0.001403 kPa
[1], 263.13 K, Metastable liquid | – | 0.002453 kPa
[1], 263.14 K, Crystal | – | 0.002334 kPa and 0.002326 kPa and 0.00232 kPa
[1], 263.14 K, Metastable liquid | – | 0.002454 kPa
[1], 268.14 K, Liquid | – | 0.004201 kPa and 0.004205 kPa and 0.004206 kPa
[1], 273.14 K, Liquid | – | 0.007045 kPa and 0.007039 kPa and 0.007052 kPa
[1], 278.14 K, Liquid | – | 0.01158 kPa
[1], 283.14 K, Liquid | – | 0.01862 kPa and 0.01863 kPa
[1], 288.14 K, Liquid | – | 0.02935 kPa and 0.02936 kPa and 0.02934 kPa
[1], 293.13 K, Liquid | – | 0.04545 kPa and 0.04543 kPa
[1], 298.14 K, Liquid | – | 0.06913 kPa and 0.06915 kPa
[1], 303.13 K, Liquid | – | 0.1034 kPa
[1], 303.14 K, Liquid | – | 0.1035 kPa
[1], 308.14 K, Liquid | – | 0.1525 kPa
[3], 265 K, Liquid | 215.4 | –
[3], 270 K, Liquid | 217.1 | –
[3], 275 K, Liquid | 218.8 | –
[3], 280 K, Liquid | 220.3 | –
[3], 285 K, Liquid | 222 | –
[3], 290 K, Liquid | 223.6 | –
[3], 295 K, Liquid | 225.5 | –
[3], 300 K, Liquid | 227.7 | –
[3], 305 K, Liquid | 229.9 | –
[3], 310 K, Liquid | 232.1 | –
[3], 315 K, Liquid | 234.6 | –
[3], 320 K, Liquid | 237 | –
[3], 325 K, Liquid | 239.5 | –
[3], 330 K, Liquid | 242 | –
[3], 335 K, Liquid | 244.4 | –
[3], 340 K, Liquid | 247 | –
[3], 345 K, Liquid | 249.9 | –
[3], 350 K, Liquid | 252.9 | –
[3], 355 K, Liquid | 255.9 | –

Conditions | Normal melting temperature [°C]
[1], Crystal | -9.2

Conditions | Molar enthalpy of transition or fusion [kJ/mol]
[2] | 16.5

CC(C)NCCO [2-isopropylaminoethanol]
Conditions | molar heat capacity at constant pressure [J/K/mol] | vapor or sublimation pressure
[1], 248.13 K, Metastable liquid | – | 0.000252 kPa and 0.000251 kPa
[1], 253.14 K, Metastable liquid | – | 0.000472 kPa
[1], 253.15 K, Crystal | – | 0.000258 kPa and 0.000257 kPa and 0.000254 kPa
[1], 253.15 K, Metastable liquid | – | 0.000471 kPa and 0.000472 kPa
[1], 258.14 K, Crystal | – | 0.000482 kPa and 0.00048 kPa and 0.000479 kPa
[1], 258.15 K, Metastable liquid | – | 0.000864 kPa
[1], 263.15 K, Crystal | – | 0.000926 kPa and 0.000923 kPa and 0.000921 kPa
[1], 263.15 K, Metastable liquid | – | 0.001546 kPa and 0.001544 kPa
[1], 268.14 K, Crystal | – | 0.00171 kPa and 0.001709 kPa
[1], 268.14 K, Metastable liquid | – | 0.002688 kPa
[1], 273.14 K, Crystal | – | 0.00318 kPa and 0.003182 kPa and 0.003174 kPa
[1], 273.14 K, Metastable liquid | – | 0.004591 kPa
[1], 273.15 K, Metastable liquid | – | 0.004589 kPa and 0.00459 kPa
[1], 278.14 K, Crystal | – | 0.005875 kPa and 0.005872 kPa and 0.00587 kPa
[1], 278.14 K, Metastable liquid | – | 0.007669 kPa and 0.007676 kPa and 0.007665 kPa
[1], 283.14 K, Crystal | – | 0.01065 kPa and 0.01066 kPa and 0.01068 kPa
[1], 283.14 K, Metastable liquid | – | 0.01257 kPa
[1], 288.14 K, Crystal | – | 0.01909 kPa and 0.01911 kPa
[1], 288.15 K, Crystal | – | 0.0191 kPa
[1], 288.15 K, Metastable liquid | – | 0.0202 kPa
[1], 293.14 K, Liquid | – | 0.03179 kPa
[1], 298.11 K, Liquid | – | 0.04899 kPa
[1], 298.12 K, Liquid | – | 0.0492 kPa
[1], 298.14 K, Liquid | – | 0.04914 kPa and 0.04915 kPa
[1], 298.17 K, Liquid | – | 0.04928 kPa
[1], 303.04 K, Liquid | – | 0.07439 kPa and 0.0744 kPa and 0.07435 kPa
[1], 303.14 K, Liquid | – | 0.0747 kPa and 0.07469 kPa and 0.07473 kPa
[1], 308.01 K, Liquid | – | 0.1111 kPa
[1], 308.03 K, Liquid | – | 0.1112 kPa
[1], 308.04 K, Liquid | – | 0.1112 kPa
[1], 308.14 K, Liquid | – | 0.1119 kPa
[1], 308.15 K, Liquid | – | 0.1119 kPa and 0.1118 kPa
[1], 313 K, Liquid | – | 0.164 kPa
[1], 313.01 K, Liquid | – | 0.1642 kPa
[1], 317.9 K, Liquid | – | 0.2372 kPa and 0.2373 kPa
[1], 322.97 K, Liquid | – | 0.3405 kPa
[1], 322.98 K, Liquid | – | 0.3407 kPa
[1], 327.95 K, Liquid | – | 0.4814 kPa and 0.4815 kPa
[1], 332.99 K, Liquid | – | 0.6731 kPa and 0.6728 kPa
[1], 337.93 K, Liquid | – | 0.9221 kPa and 0.9223 kPa
[1], 342.94 K, Liquid | – | 1.257 kPa
[3], 265 K, Metastable liquid | 240.4 | –
[3], 270 K, Metastable liquid | 243.1 | –
[3], 275 K, Metastable liquid | 245.8 | –
[3], 280 K, Metastable liquid | 248.5 | –
[3], 285 K, Metastable liquid | 251 | –
[3], 290 K, Liquid | 253.8 | –
[3], 295 K, Liquid | 256.9 | –
[3], 300 K, Liquid | 260.1 | –
[3], 305 K, Liquid | 263.3 | –
[3], 310 K, Liquid | 266.6 | –
[3], 315 K, Liquid | 270.1 | –
[3], 320 K, Liquid | 273.5 | –
[3], 325 K, Liquid | 277.2 | –
[3], 330 K, Liquid | 280.7 | –
[3], 335 K, Liquid | 284.3 | –
[3], 340 K, Liquid | 287.7 | –
[3], 345 K, Liquid | 291.1 | –
[3], 350 K, Liquid | 294.9 | –
[3], 355 K, Liquid | 298.5 | –

Conditions | Normal melting temperature [°C]
[1], Crystal | 16

Conditions | Molar enthalpy of transition or fusion [kJ/mol]
[2] | 19

CCN(CC)CCO [(diethylamino)ethanol]
Liquid
Conditions | molar heat capacity at constant pressure [J/K/mol] | vapor or sublimation pressure
[1], 273.64 K | – | 0.03488 kPa and 0.0349 kPa and 0.03489 kPa
[1], 278.14 K | – | 0.05131 kPa and 0.05133 kPa
[1], 278.15 K | – | 0.05134 kPa
[1], 283.14 K | – | 0.07733 kPa
[1], 283.15 K | – | 0.07737 kPa
[1], 288.15 K | – | 0.1146 kPa
[1], 293.14 K | – | 0.167 kPa and 0.1669 kPa
[1], 298.15 K | – | 0.2393 kPa
[1], 303.14 K | – | 0.3378 kPa and 0.3379 kPa
[1], 303.15 K | – | 0.338 kPa
[1], 308.15 K | – | 0.4708 kPa and 0.4709 kPa
[3], 265 K | 260.6 | –
[3], 270 K | 263.9 | –
[3], 275 K | 267.1 | –
[3], 280 K | 270 | –
[3], 285 K | 272.8 | –
[3], 290 K | 275.6 | –
[3], 295 K | 278.7 | –
[3], 300 K | 281.8 | –
[3], 305 K | 284.7 | –
[3], 310 K | 287.6 | –
[3], 315 K | 290.5 | –
[3], 320 K | 293.2 | –
[3], 325 K | 295.8 | –
[3], 330 K | 298.2 | –
[3], 335 K | 300.4 | –
[3], 340 K | 302.7 | –
[3], 345 K | 305.1 | –
[3], 350 K | 307.7 | –
[3], 355 K | 309.9 | –
